Peptide text beside a SMILES is read from it.
What was measured:
[1] = Solubility of peptide and peptide:DMPC complexes
[2] = Toxicity of intravenously administered peptide to mice; type: in vivo; conditions: 100 μg/mouse; for toxicity to mice, in words: intravenously
LDL from LDL-R null mice = test: Association of 125I-labelled peptide with plasma lipoproteins (CLiP profile, radioactivity of fractions); type: binding, LDL-R null mouse
Method: Peptide [^125I]Ac-(R)18L-NH2 was mixed with plasma from an LDL-R null mouse at a proportion of 100 μg peptide:1 mL plasma. The plasma lipoprotein profile was determined using the CLiP method (Garber and Anantharamaiah, J. Lipid. Res., 2000), and fractions were collected for measurement of radioactivity. Thus, peptide:lipid complexes are good candidates for administration that would result in enhanced uptake of atherogenic lipoproteins. The effect of the single domain peptide of the invention should last longer than any dual domain peptide since lipid-associated peptide is helical and the backbone is not accessible for proteolytic cleavage (degradation). Thus, several slow-release formulations of peptides with lipids are tested to determine the optimal formulation for delivery.

HepG2 cells = test: Uptake of 125I-LDL and 125I-VLDL by HepG2 cells in presence of peptide; type: cell-based
Method: These experiments were performed to test the bioactivity of the R-18L peptide in cell culture. […] Specifically, ^125I-LDL and ^125I-VLDL and the R-18L peptide were incubated with HepG2 cells in vitro for 2 hours to determine the cellular uptake of the iodinated compounds. […] H/H represent uptake of the lipoproteins in cells treated with heparinase/heparitinase. […] In case of VLDL, the peptide-mediated uptake appeared to be predominantly via an HSPG pathway. […] Examples of atherogenic lipoproteins are VLDL and LDL.
This experiment was carried out to follow the events subsequent to the binding of atherogenic lipoproteins to cultured cells. HepG2 cells (obtained from American Type Culture Collection (ATCC), Manassas, Va.) are used for determining peptide-mediated enhanced uptake of LDL or VLDL. Cells are grown in DMEM in six-well plates and used at 75% to 90% confluence. The seeding density of the cells that is used is 1.5-3.0×10^5 cells/ml. Cells are treated with DMEM containing lipoprotein-deficient serum (LPDS) 24 h prior to use to upregulate […] with the indicated concentration (0 to 50 μg of ^125I-LDL) at 4° C. for 2 h in presence or absence of peptides. Nonspecific binding is assessed in the presence of 50-fold excess of unlabelled LDL with or without peptides. After washing with ice-cold PBS, (containing 2 mg/ml BSA) to remove excess labeled lipoproteins, cells are incubated with excess dextran sulfate (4 mg/ml Pharmacia, Mr of 500,000) or heparin (Sigma Chemical Co., St. Louis, Mo., 10 mg/ml) for 1 h to release specifically bound ^125I-LDL. The counts in the dextran sulfate wash reflect the amount of LDL bound to cells. Cells are then washed with PBS and then dissolved in 0.1 N NaOH and a 0.5 ml aliquot of the cells suspension is counted. The counts reflect the amount of LDL internalized. The amount of protein is estimated using the Lowry method. Degradation of LDL is assessed by precipitating ^125I-LDL using 17% […] acid and incubating at 4° C. for 30 min. The precipitate is removed by centrifugation. The supernatant is treated with 10 μl of 40% KI and 40 μl of 10% hydrogen peroxide. The free ^125I is extracted with 2 ml chloroform. The upper aqueous layer is then counted for radioactivity. These counts represent the amount of monoiodi-tyrosine produced by the degradation of apo B in lipoproteins. Cell surface HSPG is removed by treating cells with heparinase and heparitinase (Sigma Chemical Co., St. Louis, Mo.) at a concentration of 3 u/ml of medium for 2 h at 37° C. In all cell experiments an average value of triplicate experiments are considered. Counts are detected inside the cultured cells and it is shown that LDL and VLDL are bound, internalized and degraded in the cultured cells in the presence of the peptide of the invention.

plasma cholesterol [3] = test: Plasma cholesterol after intravenous injection into fasted apo E null mice; type: in vivo
Method: The peptides were dissolved in PBS pH=5.0. Control mice (n=5) received PBS pH=5.0. Data shown represent mean±SEM.
Effects on cholesterol levels of peptide Ac-(R)14L-NH2 analog 2 (at 100 μg/mouse), administered intravenously into fasted apo E null mice as free peptide or as peptide:DMPC complexes at two pH levels. n=5 in all cases is shown in FIG. 11. Peptides were dissolved in PBS at the pH shown. Data shown represent mean±SEM.
Blood samples were taken immediately before injection and at 2 minutes and at 5 hours after injection and measured for cholesterol. A control of only PBS was also measured. Total cholesterol in the blood samples was measured, and is expressed in FIG. 4 as mean±SEM. […] However, the reduction in plasma cholesterol was in the lipoproteins, including HDL. […] Feces were collected for 24 hours following injection of 100 μg of Ac-(R)18L-NH2:DMPC complexes (n=2) or PBS (n=5). Fecal sterols were extracted, and total cholesterol was determined manually (Sigma Infinity). […] Total feces were collected from individually-caged mice for 24 hours following intravenous injection of Ac-(R)18L-NH2 into apo E null mice at a dose of 100 μg/mouse. Total 24-hour fecal cholesterol was then calculated. Feces from each mouse were weighed, lyophilized, and then re-weighed. 100 mg dried feces was then homogenized, and total lipids were extracted. The dried extract was resuspended in isopropanol, and cholesterol was measured manually. Data shown in FIG. 6 are mean±SEM for control and mean±range for peptide.
This experiment is carried out to show the usefulness of the peptides of the invention in vivo for lowering serum cholesterol. Peptide or peptide-lipid complexes were administered intravenously to mice. After some time period (as specifically shown in various figures), plasma samples were obtained by performing a retro-orbital bleed of the animals. The samples were analyzed by the column lipoprotein profile as previously described (Garber, D. et al. J. Lipid Res. 2000, 41:1020-1026). Briefly, 5 to 10 μl of the plasma was analyzed using a single superose (Pharmacia, Piscataway, N.J.) column. Immediately following the column run, cholesterol reagent is introduced through a mixing tee, and the eluent:reagent mixture enters a post column reaction coil. Cholesterol content of the reaction mixture is determined at 500 nm spectrophotometrically and the data points are collected into a computer. The resulting profiles are decomposed into component peaks and analyzed for relative area using PeakFit® computer software (SPSS Science, Chicago, Ill.). Absolute cholesterol value for total cholesterol is determined by comparisons with control samples of known values. The results would show a decrease in serum cholesterol in the subjects that received the polypeptides of the invention.

plasma cholesterol [4] = test: Plasma cholesterol in dyslipidemic mouse models; type: in vivo; conditions: several dyslipidemic mouse models, dose-dependent manner
Method: These studies were carried out to assess the bioactivity of the single domain R-18L peptides in vivo and compare its activity with the known activity of a dual domain Apo-E derived peptide. In this case, the bioactivity refers to the activity of lowering serum cholesterol in a subject (e.g., in a transgenic mouse). In this example, the 18L peptide analogs were administered to dyslipidemic mice.

erythrocytes = test: Hemolysis of erythrocytes (hemoglobin content of supernatant, absorbance at 540 nm); type: cell-based
Method: This example was performed to test the affect of amino acid residue changes on the lytic nature of peptides of the invention. Lysine residues, which resided on the polar face of the single domain peptide, were substituted with arginine and such altered peptides were tested for lytic ability. Similarly, in other peptides of the invention, lysine residues on the polar face of the single domain peptide of the invention were dimethylated. These altered peptides neutralized the hemolytic property of the 18 L peptide. A suspension of erythrocytes (10^6 cells/ml) in phosphate-buffered saline with and without peptide (10 ml of […] peptide solution) was incubated for 10 min at 37° C. Hemolysis was expressed as hemoglobin content (absorbance at 540 nm) of the supernatant after centrifugation at 16,000×g for 3 min. Hemoglobin content as measured in the presence of 0.1% Triton X-100 was taken as 100% hemolysis.

Compound: CC[C@H](C)[C@H](NC(=O)[C@H](Cc1ccccc1)NC(=O)[C@H](CCCNC(=N)N)NC(=O)[C@H](Cc1c[nH]c2ccccc12)NC(=O)[C@@H](NC(=O)[C@H](CO)NC(=O)CNC(=O)[C@H](Cc1ccc(O)cc1)NC(=O)[C@H](Cc1ccccc1)NC(=O)[C@H](CCCNC(=N)N)NC(=O)[C@H](CCCNC(=N)N)NC(C)=O)[C@@H](C)CC)C(=O)N[C@@H](CCCNC(=N)N)C(=O)N[C@@H](C)C(=O)N[C@@H](Cc1ccccc1)C(N)=O [Ac-(R)14L-NH2 analog 2] (Ac-RRFYGSIWRFIRAF-NH2)
- solubility ([1]; pH=5.0): freely soluble
- solubility ([1]; pH=7.4): only partially soluble
- effect of DMPC on the suspension ([1]; pH=7.4, addition of DMPC at a 1:1 ratio (w/w)): completely clarified this suspension

Compound: Ac-GIRRFLGSIWRFIRAFYG-NH2 [R-18L]
- toxicity to mice, in words [2]: completely normal
- counts per minute in VLDL peak (LDL from LDL-R null mice; FIG. 7, elution volume c. 12 mL): ~50 CPM
- counts per minute in LDL peak (LDL from LDL-R null mice; FIG. 7, elution volume c. 16 mL): ~150 CPM
- counts per minute in HDL peak (LDL from LDL-R null mice; FIG. 7, elution volume c. 18 mL): ~350 CPM
- uptake of LDL by HepG2 cells (HepG2 cells; 125I-LDL, 2 hours incubation): effective in enhancing the uptake
- uptake of VLDL by HepG2 cells (HepG2 cells; 125I-VLDL, 2 hours incubation): effective in enhancing the uptake
- enhanced uptake of VLDL in cells treated with heparinase/heparitinase (H/H) (HepG2 cells; HepG2 cells, H/H treated): completely abrogated
- uptake of LDL in cells treated with heparinase/heparitinase (H/H) (HepG2 cells; HepG2 cells, H/H treated): significant enhancement of uptake
- cholesterol reduction, dose dependency (plasma cholesterol [3]; 50 μg of peptide per mouse, i.v., 5 hours, limited to VLDL and IDL/LDL fractions (FIG. 5)): substantial reduction
- reducing plasma cholesterol (plasma cholesterol [3]; 50 μg/mouse, i.v., PBS pH=5.0, fasting apo E null mice (FIG. 10)): effective in reducing plasma cholesterol
- duration of plasma cholesterol reduction (plasma cholesterol [3]; 100 μg/mouse i.v. (FIG. 4)): maintained for at least five hours
- reduction of plasma cholesterol (plasma cholesterol [3]; 100 μg/mouse i.v., within two minutes, versus basal level (FIG. 4)): approximately 90%
- lowering plasma cholesterol in apo E(−) mice compared with dual domain peptide (plasma cholesterol [3]; apo E(−) mice): more effectively than the dual domain peptide
- reducing plasma cholesterol (plasma cholesterol [4]): effective in reducing plasma cholesterol

Compound: GIKKFLGSIWKFIKAFVG [18L, reference compound]
- mice that died [2]: four out of six
- toxicity to mice, in words [2]: highly toxic
- hemolysis (lytic) (erythrocytes): 80%
- hemolysis / cell lysis, in words (erythrocytes): caused marked hemolysis

Compound: GIRRFYGSIWRFIR (Ac-GIRRFYGSIWRFIR-NH2) [Ac-(R)14L-NH2 analog 1]
- reducing plasma cholesterol (plasma cholesterol [3]; free peptide, 100 μg/mouse, i.v., PBS pH=5, fasting apo E null mice (FIG. 10)): not effective

From US7563771B2, “Synthetic single domain polypeptides mimicking apolipoprotein E” (UAB Research Foundation, priority 2002, dated 2009)
